test system: apyrase; assay: Screen for apyrase inhibitors (Method 1, in vitro phosphate-release absorbance assay); assay type: biochemical; conditions: inhibitor conc at 1 mM stock, 1 hr room temperature, absorbance 630 nm; rounded average of two assay results
Summary of the method: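 Phosphate-release colorimetric assay (Windsor method) in 60 mM Hepes, 3 mM MgCl2, 3 mM CaCl2, 3 mM ATP, pH 6.5, with compound or DMSO control added. Released phosphate developed with ammonium molybdate and ascorbic acid/TCA, then stopped with citrate/acetic acid.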

Point of comparison: COc1ccc(NS(=O)(=O)c2cccc(C(=O)Nc3ccc(Br)cc3)c2)cc1 [I-278, N-(4-bromophenyl)-3-(N-(4-methoxyphenyl)sulfamoyl)benzamide], “% Inhibition of Apyrase” value 43%. Against it:
- C=CCN(c1ccccc1Cl)S(=O)(=O)c1cc(C(=O)N2CCc3ccccc32)ccc1Cl [I-516, N-allyl-2-chloro-N-(2-chlorophenyl)-5-(indoline-1-carbonyl)benzenesulfonamide] — higher, 56%
- CCOc1ccc(N(C)S(=O)(=O)c2ccc(C)c(C(=O)N3c4ccccc4CC3C)c2)cc1 (stereo not shown) [I-564, N-(4-ethoxyphenyl)-N,4-dimethyl-3-(2-methylindoline-1-carbonyl)benzenesulfonamide] — higher, 51%
- CN(c1ccccc1)S(=O)(=O)c1ccc(C(=O)N2CCc3ccccc32)cc1 [I-865, 4-(indoline-1-carbonyl)-N-methyl-N-phenylbenzenesulfonamide] — higher, 59%
- COc1ccccc1NS(=O)(=O)c1cccc(NC(=O)c2ccc(=O)n(Cc3ccccc3)n2)c1 [I-735, 1-benzyl-N-(3-(N-(2-methoxyphenyl)sulfamoyl)phenyl)-6-oxo-1,6-dihydropyridazine-3-carboxamide] — higher, 53%
- Cc1cccc(NS(=O)(=O)c2cc(C(=O)N3CCCc4ccccc43)ccc2C)c1 [I-438, 2-methyl-5-(1,2,3,4-tetrahydroquinoline-1-carbonyl)-N-(m-tolyl)benzenesulfonamide] — higher, 63%
- O=C(Nc1ccc(OC(F)F)cc1)c1ccccc1NS(=O)(=O)c1ccc(F)cc1 [I-376, N-(4-(difluoromethoxy)phenyl)-2-((4-fluorophenyl)sulfonamido)benzamide] — lower, 35%
- O=C(Nc1ccc(N2CCOCC2)cc1)c1ccc(S(=O)(=O)N2CCCc3ccccc32)cc1 [I-895, 4-((3,4-dihydroquinolin-1(2H)-yl)sulfonyl)-N-(4-morpholinophenyl)benzamide] — lower, 10%
- CN(c1ccccc1)S(=O)(=O)c1ccccc1C(=O)Nc1ccc(S(=O)(=O)N2CCCC2)cc1 [I-215, 2-(N-methyl-N-phenylsulfamoyl)-N-(4-(pyrrolidin-1-ylsulfonyl)phenyl)benzamide] — higher, 58%
- O=C(Nc1ccc(Br)cc1)c1cccc(S(=O)(=O)Nc2cccc([N+](=O)[O-])c2)c1 [I-24, N-(4-bromophenyl)-3-(N-(3-nitrophenyl)sulfamoyl)benzamide] — lower, 29%
- CC(=O)Nc1ccc(NC(=O)c2cccc(S(=O)(=O)N3CCc4ccccc43)c2)cc1 [I-480, N-(4-acetamidophenyl)-3-(indolin-1-ylsulfonyl)benzamide] — higher, 58%
- Cc1ccccc1NC(=O)c1cc(S(=O)(=O)Nc2ccc(Br)cc2)ccc1Cl [I-36, 5-(N-(4-bromophenyl)sulfamoyl)-2-chloro-N-(o-tolyl)benzamide] — lower, 16%
- Cc1ccc(NS(=O)(=O)c2ccc(C(=O)Nc3ccc(C)cc3Br)cc2)cc1 [I-862, N-(2-bromo-4-methylphenyl)-4-(N-(p-tolyl)sulfamoyl)benzamide] — higher, 61%
- CCNC(=O)c1cccc(NC(=O)c2cccc(S(=O)(=O)Nc3cccc(C(F)(F)F)c3)c2)c1 [I-594, N-ethyl-3-(3-(N-(3-(trifluoromethyl)phenyl)sulfamoyl)benzamido) benzamide] — lower, 36%
- O=C(Nc1cccc(NS(=O)(=O)c2c(Br)cc3[nH]c(=O)oc3c2Cl)c1)c1ccc(Br)cc1 [I-337, 4-bromo-N-(3-((5-bromo-7-chloro-2-oxo-2,3-dihydrobenzo[d]oxazole)-6-sulfonamido)phenyl)benzamide] — higher, 73%
- O=C(Nc1cccc(F)c1)c1ccc(NS(=O)(=O)c2ccccc2)cc1 [I-904, N-(3-fluorophenyl)-4-(phenylsulfonamido)benzamide] — higher, 62%
- COc1ccccc1NS(=O)(=O)c1ccc(NC(=O)c2cccc([N+](=O)[O-])c2)cc1 [I-993, N-(4-(N-(2-methoxyphenyl)sulfamoyl)phenyl)-3-nitrobenzamide] — higher, 48%
- O=C(Nc1ccc(S(=O)(=O)Nc2ccc(F)c(Cl)c2)cc1)c1cccc([N+](=O)[O-])c1 [I-972, N-(4-(N-(3-chloro-4-fluorophenyl)sulfamoyl)phenyl)-3-nitrobenzamide] — higher, 66%
- O=C(Nc1ccc(F)cc1)c1cccc(S(=O)(=O)Nc2ccc3c(c2)OCO3)c1 [I-216, 3-(N-(benzo[d][1,3]dioxol-5-yl)sulfamoyl)-N-(4-fluorophenyl)benzamide] — higher, 71%
- O=C(Nc1cccc(S(=O)(=O)Nc2cccc(C(F)(F)F)c2)c1)c1ccc(Cl)nc1 [I-725, 6-chloro-N-(3-(N-(3-(trifluoromethyl)phenyl)sulfamoyl)phenyl) nicotinamide] — higher, 57%
- COc1ccc(NS(=O)(=O)c2ccc(NC(=O)c3cccc(S(=O)(=O)N(C)C)c3)cc2)cc1 [I-991, 3-(N,N-dimethylsulfamoyl)-N-(4-(N-(4-methoxyphenyl)sulfamoyl)phenyl)benzamide] — higher, 53%
- COc1ccc(NS(=O)(=O)c2ccc(NC(=O)c3ccc(Cl)cc3)cc2)cc1 [I-1001, 4-chloro-N-(4-(N-(4-methoxyphenyl)sulfamoyl)phenyl)benzamide] — lower, 16%
- Cc1ccnc(NC(=O)c2cccc(NS(=O)(=O)c3ccc4c(c3)OCCCO4)c2)c1 [I-663, 3-((3,4-dihydro-2H-benzo[b][1,4]dioxepine)-7-sulfonamido)-N-(4-methylpyridin-2-yl)benzamide] — lower, 25%
- O=C(c1ccc(NS(=O)(=O)c2cc(Cl)ccc2Cl)cc1)N1CCc2ccccc21 [I-964, 2,5-dichloro-N-(4-(indoline-1-carbonyl)phenyl)benzenesulfonamide] — lower, 10%
- COc1ccc(C(=O)Nc2cccc(Cl)c2)cc1S(=O)(=O)Nc1ccc(Br)cc1 [I-15, 3-(N-(4-bromophenyl)sulfamoyl)-N-(3-chlorophenyl)-4-methoxybenzamide] — higher, 55%
- COc1ccc(NC(=O)c2cccc(S(=O)(=O)Nc3cccc(Cl)c3)c2)cn1 [I-612, 3-(N-(3-chlorophenyl)sulfamoyl)-N-(6-methoxypyridin-3-yl)benzamide] — lower, 4%
- O=C(c1cc(S(=O)(=O)Nc2ccc(Cl)cc2)ccc1Cl)N1CCc2ccccc21 [I-490, 4-chloro-N-(4-chlorophenyl)-3-(indoline-1-carbonyl)benzenesulfonamide] — higher, 58%
- Cc1cccc(NC(=O)c2cccc(NS(=O)(=O)c3ccc4c(c3)OCCO4)c2)c1C [I-320, 3-((2,3-dihydrobenzo[b][1,4]dioxine)-6-sulfonamido)-N-(2,3-dimethylphenyl)benzamide] — higher, 62%
- CN(c1ccccc1)S(=O)(=O)c1cccc(C(=O)N2CCCc3ccccc32)c1 [I-482, N-methyl-N-phenyl-3-(1,2,3,4-tetrahydroquinoline-1-carbonyl)benzenesulfonamide] — higher, 58%
- COc1ccc(NC(=O)c2cccc(NS(=O)(=O)c3ccc(Br)cc3)c2)cn1 [I-645, 3-((4-bromophenyl)sulfonamido)-N-(6-methoxypyridin-3-yl)benzamide] — higher, 54%
- O=C(Nc1cccc(F)c1)c1ccc(Cl)c(S(=O)(=O)N2CCc3ccccc32)c1 [I-537, 4-chloro-N-(3-fluorophenyl)-3-(indolin-1-ylsulfonyl)benzamide] — higher, 54%
- N#Cc1cccc(S(=O)(=O)Nc2cccc(C(=O)Nc3cccc(C(F)(F)F)c3)c2)c1 [I-196, 3-((3-cyanophenyl)sulfonamido)-N-(3-(trifluoromethyl)phenyl)benzamide] — higher, 74%
- CN(c1ccccc1)S(=O)(=O)c1cccc(NC(=O)c2ccsc2)c1 [I-716, N-(3-(N-methyl-N-phenylsulfamoyl)phenyl)thiophene-3-carboxamide] — higher, 58%
- COc1ccc(N(C)S(=O)(=O)c2cccc(C(=O)N3CCc4ccccc43)c2)cc1 [I-540, 3-(indoline-1-carbonyl)-N-(4-methoxyphenyl)-N-methylbenzenesulfonamide] — higher, 54%
- Cn1nc2c(c1NC(=O)c1cccc(NS(=O)(=O)c3ccc(Br)cc3)c1)CCC2 [I-653, 3-((4-bromophenyl)sulfonamido)-N-(2-methyl-2,4,5,6-tetrahydrocyclopenta[c]pyrazol-3-yl)benzamide] — higher, 44%
- CC1Cc2ccccc2N1C(=O)c1ccc(S(=O)(=O)Nc2ccccc2)cc1 (stereo not shown) [I-381, 4-(2-methylindoline-1-carbonyl)-N-phenylbenzenesulfonamide] — higher, 72%
- O=C(Nc1cccc(S(=O)(=O)Nc2ccc(Cl)cc2)c1)c1ccoc1 [I-712, N-(3-(N-(4-chlorophenyl)sulfamoyl)phenyl)furan-3-carboxamide] — higher, 59%
- COc1ccc(S(=O)(=O)N2CCc3ccccc32)cc1C(=O)Nc1ccc(C)c(C)c1 [I-593, N-(3,4-dimethylphenyl)-5-(indolin-1-ylsulfonyl)-2-methoxybenzamide] — lower, 38%
- CN(c1ccccc1)S(=O)(=O)c1ccccc1C(=O)Nc1ccc(C#N)cc1 [I-811, N-(4-cyanophenyl)-2-(N-methyl-N-phenylsulfamoyl)benzamide] — higher, 74%
- O=C(Nc1cccc(S(=O)(=O)Nc2ccccc2Cl)c1)c1ccc2ccccc2n1 [I-734, N-(3-(N-(2-chlorophenyl)sulfamoyl)phenyl)quinoline-2-carboxamide] — higher, 54%

Reference: patent US12685312B2, “Sulfonamide apyrase inhibitors” (Texas Crop Science, Inc., priority 2022, dated 2026)
